Reference: ChEMBL document CHEMBL1201862, “PubChem BioAssay data set” (2004)
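Where inhibition never reached the appropriate level, the endpoint shown equals the highest concentration tested. Otherwise, values were interpolated linearly from a five-concentration, 48-hour dose response in 96-well plates. Here, GI50 denotes the concentration required for 50% inhibition of growth.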 Calls of active or inactive are those of the source. No stated cut-off is given here; in the data, active = GI50 up to about 1.1 µM and inactive = higher.

Columns and labels:
Assay in all cases: inhibition of tumour cell growth, NCI panel, 48 h
[1] = test system: OVCAR-8
[2] = test system: OVCAR-3
[3] = test system: HOP-18
[4] = test system: 786-0
[5] = test system: SK-MEL-28
[6] = test system: HOP-62
[7] = test system: SW-620
[8] = test system: ACHN
[9] = test system: A549
[10] = test system: COLO 205
[11] = test system: K562
[12] = test system: HT-29
[13] = test system: HL-60
[14] = test system: RXF 393
[15] = test system: SNB-75
[16] = test system: BT-549
[17] = test system: SR
[18] = test system: MCF7
[19] = test system: MDA-MB-231
[20] = test system: MDA-MB-435

SMILES	GI50 [1]	GI50 [2]	GI50 [3]	GI50 [4]	GI50 [5]	GI50 [6]	GI50 [7]	GI50 [8]	GI50 [9]	GI50 [10]	GI50 [11]	GI50 [12]	GI50 [13]	GI50 [14]	GI50 [15]	GI50 [16]	GI50 [17]	GI50 [18]	GI50 [19]	GI50 [20]
COC(=O)C1=C(C)N(NC(N)=O)C2(N)N(NC(N)=O)C(C)=C(C(=O)OC)C12C(=O)OC (centres undefined)	> 100 µM (inactive)	> 10 µM (inactive)	> 100 µM (inactive)	> 100 µM (inactive)	> 100 µM (inactive)	> 100 µM (inactive)	> 100 µM (inactive)	> 100 µM (inactive)	> 100 µM (inactive)	> 100 µM (inactive)	> 100 µM (inactive)	> 100 µM (inactive)	> 100 µM (inactive)	–	–	–	–	–	–	–
C1=CC(N(c2ccccc2)C2C=CCCC2)CCC1 (centres undefined)	> 100 µM (inactive)	–	> 100 µM (inactive)	> 100 µM (inactive)	> 100 µM (inactive)	–	> 100 µM (inactive)	> 100 µM (inactive)	> 100 µM (inactive)	> 100 µM (inactive)	> 100 µM (inactive)	> 100 µM (inactive)	69.8 µM (inactive)	48.6 µM (inactive)	–	–	–	–	–	–
O=C(CC(=O)c1cccc2ccccc12)C(=O)NC1C2CC3CC(C2)CC1C3 (centres undefined)	> 100 µM (inactive)	> 100 µM (inactive)	60.1 µM (inactive)	> 100 µM (inactive)	–	> 100 µM (inactive)	> 100 µM (inactive)	> 100 µM (inactive)	> 100 µM (inactive)	> 100 µM (inactive)	51.4 µM (inactive)	> 100 µM (inactive)	77.1 µM (inactive)	–	–	–	–	–	–	–
O=C1Nc2ccccc2C12CCNC2Cc1ccccc1 (centres undefined)	> 100 µM (inactive)	> 100 µM (inactive)	78.3 µM (inactive)	> 100 µM (inactive)	> 100 µM (inactive)	> 100 µM (inactive)	> 100 µM (inactive)	> 100 µM (inactive)	> 100 µM (inactive)	> 100 µM (inactive)	> 100 µM (inactive)	> 100 µM (inactive)	> 100 µM (inactive)	–	> 100 µM (inactive)	–	–	–	–	–
Sc1nn2c(COc3cccc(OCc4nnc5sc(S)nn45)c3)nnc2s1	> 100 µM (inactive)	> 100 µM (inactive)	–	41.4 µM (inactive)	> 100 µM (inactive)	> 100 µM (inactive)	37.5 µM (inactive)	> 100 µM (inactive)	> 100 µM (inactive)	> 100 µM (inactive)	7.89 µM (inactive)	62.5 µM (inactive)	7.08 µM (inactive)	> 100 µM (inactive)	> 100 µM (inactive)	> 100 µM (inactive)	17.4 µM (inactive)	76.2 µM (inactive)	> 100 µM (inactive)	> 100 µM (inactive)
Cc1cc(/N=N/c2ccccc2C)ccc1N	15.2 µM (inactive)	7.35 µM (inactive)	–	10.5 µM (inactive)	21 µM (inactive)	5.6 µM (inactive)	19.6 µM (inactive)	5.52 µM (inactive)	4.32 µM (inactive)	18.4 µM (inactive)	11.4 µM (inactive)	17.3 µM (inactive)	2.96 µM (inactive)	6.82 µM (inactive)	5.94 µM (inactive)	10.6 µM (inactive)	12.7 µM (inactive)	4.06 µM (inactive)	14.8 µM (inactive)	19.5 µM (inactive)
COc1ccc(C(NCCNC(c2ccc(OC)c(OC)c2)c2cc3c(cc2O)OCO3)c2cc3c(cc2O)OCO3)cc1OC (centres undefined)	1.89 µM (inactive)	2.65 µM (inactive)	–	1.82 µM (inactive)	1.62 µM (inactive)	8.18 µM (inactive)	1.29 µM (inactive)	2.64 µM (inactive)	12.2 µM (inactive)	2.89 µM (inactive)	1.49 µM (inactive)	2.64 µM (inactive)	1.71 µM (inactive)	1.72 µM (inactive)	3.56 µM (inactive)	2.12 µM (inactive)	0.682 µM (active)	1.42 µM (inactive)	3.13 µM (inactive)	1.87 µM (inactive)
CC(=O)OCC1=C(C)C[C@H]([C@@H](COC(C)=O)C2CCC3C4C[C@H]5O[C@]56CC=CC(=O)[C@]6(C)C4CC[C@@]32C)OC1=O (some centres undefined)	0.15 µM (active)	0.109 µM (active)	–	0.19 µM (active)	0.3 µM (active)	0.634 µM (active)	0.115 µM (active)	0.302 µM (active)	1.39 µM (inactive)	0.307 µM (active)	0.0106 µM (active)	0.123 µM (active)	0.0384 µM (active)	0.369 µM (active)	2.16 µM (inactive)	0.26 µM (active)	0.005 µM (active)	0.00955 µM (active)	0.376 µM (active)	0.153 µM (active)
COC1(OC)C(/C(N)=C\O)=NC(C)(C)N1O	> 100 µM (inactive)	29.9 µM (inactive)	–	> 100 µM (inactive)	> 100 µM (inactive)	> 100 µM (inactive)	> 100 µM (inactive)	> 100 µM (inactive)	> 100 µM (inactive)	57 µM (inactive)	> 100 µM (inactive)	> 100 µM (inactive)	20.4 µM (inactive)	> 100 µM (inactive)	66.2 µM (inactive)	> 100 µM (inactive)	> 100 µM (inactive)	74.6 µM (inactive)	> 100 µM (inactive)	> 100 µM (inactive)
Cc1cc(N(CCC#N)CCC#N)ccc1C(=N/NC(=O)c1cc(Cl)ccc1O)/N=N/c1cccc([N+](=O)[O-])c1	22.6 µM (inactive)	15.9 µM (inactive)	–	29 µM (inactive)	28.9 µM (inactive)	24.2 µM (inactive)	39.3 µM (inactive)	35.5 µM (inactive)	28 µM (inactive)	16.7 µM (inactive)	22 µM (inactive)	26.7 µM (inactive)	14.7 µM (inactive)	22.2 µM (inactive)	27.5 µM (inactive)	22.4 µM (inactive)	12.6 µM (inactive)	16.7 µM (inactive)	14.5 µM (inactive)	35.4 µM (inactive)
Cc1cc(C)nc(NS(=O)(=O)c2ccc(NC(=O)c3ccc4nc5ccccc5c(Nc5ccc(S(=O)(=O)Nc6nc(C)cc(C)n6)cc5)c4c3)cc2)n1	> 100 µM (inactive)	> 100 µM (inactive)	–	> 100 µM (inactive)	> 100 µM (inactive)	> 100 µM (inactive)	41.4 µM (inactive)	> 100 µM (inactive)	> 100 µM (inactive)	> 100 µM (inactive)	38 µM (inactive)	64.9 µM (inactive)	33 µM (inactive)	34.9 µM (inactive)	> 100 µM (inactive)	19 µM (inactive)	39.7 µM (inactive)	37.8 µM (inactive)	20.8 µM (inactive)	> 100 µM (inactive)
O=[N+]([O-])c1ccc2c(c1)C1=NN(c3ccccc3)C(c3ccccc3Br)C1CCC2 (centres undefined)	22.2 µM (inactive)	16.2 µM (inactive)	–	> 50 µM (inactive)	21.1 µM (inactive)	43.6 µM (inactive)	9.12 µM (inactive)	22.8 µM (inactive)	28.1 µM (inactive)	33.7 µM (inactive)	4.53 µM (inactive)	16.1 µM (inactive)	7.64 µM (inactive)	14.4 µM (inactive)	42.8 µM (inactive)	13.2 µM (inactive)	4.05 µM (inactive)	11.2 µM (inactive)	36.3 µM (inactive)	15 µM (inactive)
CCOc1cc(C2CC(c3ccc(NS(=O)(=O)c4cc([N+](=O)[O-])ccc4C)cc3)=NN2C(=O)c2ccccc2)ccc1O (centres undefined)	15.2 µM (inactive)	12 µM (inactive)	–	23.1 µM (inactive)	36.5 µM (inactive)	17.1 µM (inactive)	32.8 µM (inactive)	18.5 µM (inactive)	17.8 µM (inactive)	16.4 µM (inactive)	18.2 µM (inactive)	26.5 µM (inactive)	17.2 µM (inactive)	11.4 µM (inactive)	14.1 µM (inactive)	20.1 µM (inactive)	23.8 µM (inactive)	17.3 µM (inactive)	17.5 µM (inactive)	28.1 µM (inactive)
COc1ccccc1NC(=S)N/N=C(/c1ccccc1)c1ccccn1	0.0627 µM (active)	< 0.0143 µM (active)	–	0.103 µM (active)	1.39 µM (inactive)	0.251 µM (active)	0.021 µM (active)	0.0257 µM (active)	0.141 µM (active)	0.0173 µM (active)	< 0.0128 µM (active)	0.0101 µM (active)	< 0.0131 µM (active)	1.07 µM (active)	0.998 µM (active)	2.15 µM (inactive)	< 0.0206 µM (active)	0.0228 µM (active)	0.0214 µM (active)	0.356 µM (active)
Clc1cccc(Cl)c1/C=N/C12CC3CC(CC(C3)C1)C2	> 10 µM (inactive)	> 10 µM (inactive)	–	> 10 µM (inactive)	> 10 µM (inactive)	> 10 µM (inactive)	> 10 µM (inactive)	> 10 µM (inactive)	> 10 µM (inactive)	> 10 µM (inactive)	> 10 µM (inactive)	> 10 µM (inactive)	> 10 µM (inactive)	> 10 µM (inactive)	6.47 µM (inactive)	> 10 µM (inactive)	3.26 µM (inactive)	> 10 µM (inactive)	> 10 µM (inactive)	> 10 µM (inactive)
C[N+](C)([O-])CCCNc1c2ccccc2nc2cccc([N+](=O)[O-])c12	0.635 µM (active)	0.308 µM (active)	–	0.166 µM (active)	0.684 µM (active)	0.385 µM (active)	0.203 µM (active)	0.324 µM (active)	0.175 µM (active)	0.143 µM (active)	0.253 µM (active)	0.179 µM (active)	0.351 µM (active)	0.163 µM (active)	0.456 µM (active)	0.703 µM (active)	0.0653 µM (active)	0.113 µM (active)	0.33 µM (active)	0.226 µM (active)
